The results in this text go back to US11649218B2, “C-Abl tyrosine kinase inhibitory compound embodiments and methods of making and using the same” (The USA, as represented by the Secretary, Dept. of Health …, priority 2018, dated 2023).

Data set [1] is described as follows: Pharmacokinetic profile in plasma. It counts as in vivo, mice. Particulars: 12.5 mg/kg IP.
The nature of data set [2]: Pharmacokinetic profile in brain. It counts as in vivo, mice. Particulars: 12.5 mg/kg IP.
Data set [3] has as its system P. falciparum strain NF54 asexual parasites. Description: Asexual stage parasite growth inhibition, SYBR Green assay, 72 hours. The following applies: NF54, 72 hours; for IC50: Plasmodium falciparum. It counts as cell-based. As for the experimental part: In this example, several of the c-Abl inhibitors were tested in the asexual […] strain of P. falciparum parasites for activity against malaria. […] The pre-diluted parasites were dispensed into a 1536-well plate (2.5 μL/well). […] The fluorescence of each well was measured at 520 nm following excitation at 490 nm using a ViewLux platereader (PerkinElmer).

Another data set has as its system Leukemia K562 cell. The experiment in a line: Leukemia K562 cell proliferation/viability assay (CellTiterGlo, 48 hours). Also noted: unit not given here. The following applies: K562 cells. It counts as cell-based. The procedure:
C-Abl is encoded by the ABL1 gene (NCBI Gene ID NO. 25). […] Assays for determining if a small molecule inhibits c-Abl activity are known. Non-limiting examples include cell proliferation assays using cancer cells that are BCR-Abl positive and depend on BCR-Abl for growth, such as the leukemia cell line K562. […] In some embodiments described herein, compounds are tested for ability to reduce K562 cell proliferation in an HTS adapted assay which measures cell viability using the reagent CellTiterGlo after 48 hours treatment.

As to `O=C(Nc1ccc(OC(F)(F)Cl)cc1)c1cnc(N2CC[C@@H](O)C2)c(-c2ccn[nH]2)c1` [ABL001], the Plasma concentration came to 5.454 µM in data set [1] (Time 0.167); 9.137 µM in data set [1] (Time 0.5); 11.174 µM in data set [1] (Time 1); 10.189 µM in data set [1] (Time 1.5); 5.483 µM in data set [1] (Time 2); 1.628 µM in data set [1] (Time 4). In addition, the Plasma concentration in data set [1] (Time 7) worked out at 0.399 µM; in data set [1] (Time 24), 0.007 µM. The Brain concentration in data set [2] (Time 0.167) was determined as 0.330 µmol/kg; in data set [2] (Time 0.5), 0.534 µmol/kg; in data set [2] (Time 1) it was 0.597 µmol/kg; in data set [2] (Time 1.5), 0.442 µmol/kg; in data set [2] (Time 2) it was 0.336 µmol/kg; in data set [2] (Time 4), 0.119 µmol/kg. For the same compound, the Brain concentration in data set [2] (Time 7) came to 0.056 µmol/kg; in data set [2] (Time 24) it was 0.003 µmol/kg.

For the compound `O=C1Nc2cc(OC(F)(F)F)ccc2Oc2ccc(-c3ccnc(N4CCOCC4)c3)cc21` [NCGC00411866, 2-(2-Morpholinopyridin-4-yl)-8-(trifluoromethoxy)dibenzo[b,f][1,4]oxazepin-11(10H)-one], in data set [3], the “% Killing” value stood at 92.9% and the IC50 came out at 9.69 µM.

`NC(=O)c1cccc(-c2cc(Nc3ccc(OC(F)(F)F)cc3)ncn2)c1` [GNF-2] returned an Efficacy in the data set on Leukemia K562 cell of −85.2. Further, in data set [3], the “% Killing” value amounted to 86.0% and 1.4 µM corresponded to half-maximal inhibition (IC50).

For the compound `N#CCn1cc(-c2ccc3c(c2)C(=O)Nc2cc(OC(F)(F)F)ccc2O3)cn1` [NCGC00388626, 2-(4-(11-Oxo-8-(trifluoromethoxy)-10,11-dihydrodibenzo[b,f][1,4]oxazepin-2-yl)-1H-pyrazol-1-yl)acetonitrile], the Efficacy in the data set with Leukemia K562 cell is recorded as −34.8.

`O=C1Nc2cc(OC(F)(F)F)ccc2Oc2ccc(-c3cccc(-c4ccn[nH]4)c3)cc21` [NCGC00411874, 2-(3-(1H-Pyrazol-5-yl)phenyl)-8-(trifluoromethoxy)dibenzo[b,f][1,4]oxazepin-11(10H)-one] showed an Efficacy in the data set with Leukemia K562 cell of −84.3.

In the data set on Leukemia K562 cell, `NC(=O)c1cccc(-c2ccc3c(c2)C(=O)Nc2cc(OC(F)(F)F)ccc2O3)c1` [NCGC00356842, 3-(11-Oxo-8-(trifluoromethoxy)-10,11-dihydrodibenzo[b,f][1,4]oxazepin-2-yl)benzamide] gave an Efficacy of −67.0.

As for `O=C1Nc2cc(OC(F)(F)F)ccc2Oc2ccc(-c3ccc(CN4CCOCC4)s3)cc21` [NCGC00388536, 2-(5-(Morpholinomethyl)thiophen-2-yl)-8-(trifluoromethoxy)dibenzo[b,f][1,4]oxazepin-11(10H)-one], the Efficacy in the data set on Leukemia K562 cell was −83.1.

In the data set with Leukemia K562 cell, `O=C1Nc2cc(OC(F)(F)F)ccc2Nc2ccc(-c3cccc(C(=O)N4CCOCC4)c3)cc21` [NCGC00355558, 2-(3-(Morpholine-4-carbonyl)phenyl)-8-(trifluoromethoxy)-5,10-dihydro-11H-dibenzo[b,e][1,4]diazepin-11-one] had an Efficacy of −89.5.

For the compound `O=C1Nc2cc(OC(F)(F)F)ccc2Oc2ccc(-c3cnc4ccnn4c3)cc21` [NCGC00409812, 2-(pyrazolo[1,5-a]pyrimidin-6-yl)-8-(trifluoromethoxy)dibenzo[b,f][1,4]oxazepin-11(10H)-one], the Efficacy in the data set on Leukemia K562 cell is recorded as −69.0.

As for `O=C1Nc2cc(OC(F)(F)F)ccc2Oc2ccc(-c3cccc(S(=O)(=O)NCCO)c3)cc21` [NCGC00373064, N-(2-Hydroxyethyl)-3-(11-oxo-8-(trifluoromethoxy)-10,11-dihydrodibenzo[b,f][1,4]oxazepin-2-yl)benzenesulfonamide], in the data set on Leukemia K562 cell, the Efficacy was −103.3.

Take `COc1ccc(-c2ccc3c(c2)C(=O)Nc2cc(OC(F)(F)F)ccc2O3)cc1O` [NCGC00373062, 2-(3-Hydroxy-4-methoxyphenyl)-8-(trifluoromethoxy)dibenzo[b,f][1,4]oxazepin-11(10H)-one]: the Efficacy in the data set on Leukemia K562 cell is recorded as −93.7.

For the compound `N#Cc1ccc2c(c1)NC(=O)c1cc(-c3ccnc(N4CCOCC4)c3)ccc1O2` [NCGC00481503, 2-(2-Morpholinopyridin-4-yl)-11-oxo-10,11-dihydrodibenzo[b,f][1,4]oxazepine-8-carbonitrile], the Efficacy in the data set with Leukemia K562 cell is recorded as −80.5.

In the data set on Leukemia K562 cell, `CS(=O)(=O)Nc1cccc(-c2ccc3c(c2)CNc2cc(OC(F)(F)F)ccc2O3)c1` [NCGC00371644, N-(3-(8-(Trifluoromethoxy)-10,11-dihydrodibenzo[b,f][1,4]oxazepin-2-yl)phenyl)methanesulfonamide] displayed an Efficacy of −90.7.

`COC(=O)c1ccc2c(c1)C(=O)Nc1cc(OC(F)(F)F)ccc1O2` [NCGC00387394] yielded an Efficacy in the data set with Leukemia K562 cell of 0.0.

As for `O=C1Nc2cc(OC(F)(F)F)ccc2Oc2ccc(-c3ccc4[nH]ncc4c3)cc21` [NCGC00373058, 2-(1H-Indazol-5-yl)-8-(trifluoromethoxy)dibenzo[b,f][1,4]oxazepin-11(10H)-one], in the data set on Leukemia K562 cell, the Efficacy is listed as −74.3.

As to `CS(=O)(=O)Nc1cccc(-c2ccc3c(c2)Oc2cc(OC(F)(F)F)ccc2NC3=O)c1` [NCGC00384296, N-(3-(11-oxo-7-(trifluoromethoxy)-10,11-dihydrodibenzo[b,f][1,4]oxazepin-3-yl)phenyl)methanesulfonamide], the Efficacy in the data set with Leukemia K562 cell is −73.3.

As for `CC(=O)c1csc(-c2ccc3c(c2)C(=O)Nc2cc(OC(F)(F)F)ccc2O3)c1` [NCGC00388580, 2-(4-Acetylthiophen-2-yl)-8-(trifluoromethoxy)dibenzo[b,f][1,4]oxazepin-11(10H)-one], the Efficacy in the data set on Leukemia K562 cell was −92.6.

In the data set on Leukemia K562 cell, `O=C1Nc2cc(OC(F)(F)F)ccc2Oc2ccc(-c3cccc(CO)c3)cc21` [NCGC00415061, 2-(3-(Hydroxymethyl)phenyl)-8-(trifluoromethoxy)dibenzo[b,f][1,4]oxazepin-11(10H)-one] showed an Efficacy of −71.4.

The compound `O=C1Nc2cc(OC(F)(F)F)ccc2Oc2ccc(-c3ccncc3)cc21` [NCGC00371309, 2-(Pyridin-4-yl)-8-(trifluoromethoxyl)dibenzo[b,f][1,4]oxazepin-11(10H)-one] displayed an Efficacy in the data set with Leukemia K562 cell of −77.6.

Consider `O=C1Nc2cc(OC(F)(F)F)ccc2Oc2ccc(-c3cccc(-c4nn[nH]n4)c3)cc21` [NCGC00420743, 2-(3-(2H-Tetrazol-5-yl)phenyl)-8-(trifluoromethoxy)dibenzo[b,f][1,4]oxazepin-11(10H)-one], for which the Efficacy with Leukemia K562 cell is 0.0.

Take `NCc1ccc(-c2ccc3c(c2)C(=O)Nc2cc(OC(F)(F)F)ccc2O3)s1` [NCGC00388547, 2-(5-(Aminomethyl)thiophen-2-yl)-8-(trifluoromethoxy)dibenzo[b,f][1,4]oxazepin-11(10H)-one]: the Efficacy with Leukemia K562 cell is recorded as −91.7.

In general, IC50 refers to the point on the concentration scale where inhibition reaches its midpoint.
